Drawing on the PolyMetriX glass transition set, this text covers glass transition temperature for 35 compounds.

For `*C(=O)c1ccc2c(c1)C(=O)N(c1ccc(Oc3ccc(S(=O)(=O)c4ccc(C)cc4)cc3)c(N3C(=O)c4ccc(*)cc4C3=O)c1)C2=O` (repeat unit), the glass transition temperature worked out at 293.00 °C. The compound `*Oc1ccc(-c2ccc(-c3ccc(Oc4ccc(C(=O)c5cccc(C(=O)c6ccc(*)cc6)c5)cc4)cc3)cc2)cc1` (repeat unit) yielded a glass transition temperature of 174.00 °C. `*Oc1ccc(-c2ccc(Oc3ccc(Oc4ccc(S(=O)(=O)c5ccc(Oc6ccc(*)cc6)cc5)cc4)cc3)c3ccccc23)c2ccccc12` (repeat unit): the glass transition temperature was determined as 214.00 °C. Next, `*Oc1ccc(NC(=O)c2cccc(C(=O)Nc3ccc(Oc4ccc(C(C)(C)c5cccc(C(C)(C)c6ccc(*)cc6)c5)cc4)cc3)c2)cc1` (repeat unit): 180.00 °C; `*Oc1ccc(Nc2ccc(S(=O)(=O)c3ccc(Nc4ccc(Oc5ccc(C(C)(C)c6ccc(*)cc6)cc5)cc4)cc3)cc2)cc1` (repeat unit): 145.00 °C; `*Oc1ccc(Oc2ccc(Oc3ccc(S(=O)(=O)c4ccc(*)cc4)cc3)cc2)cc1` (repeat unit): 192.00 °C.

In turn, `*Oc1ccc(Oc2ccc(S(=O)(=O)c3ccc(*)cc3)cc2)cc1` (repeat unit) came in with a glass transition temperature of 210.00 °C. Take `*Oc1ccc(Oc2ccc(S(=O)(=O)c3ccc(-c4ccc(-c5ccc(S(=O)(=O)c6ccc(*)cc6)cc5)cc4)cc3)cc2)cc1` (repeat unit): the glass transition temperature turned out to be 259.00 °C. The compound `*Oc1ccc(Oc2ccc(S(=O)c3ccc(Oc4ccc(Oc5cccc(*)n5)cc4)cc3)cc2)cc1` (repeat unit) gave a glass transition temperature of 138.00 °C. On to `*Oc1ccc(P(C)(=O)c2ccc(Oc3ccc(C(C)(C)c4ccc(*)cc4)cc3)cc2)cc1` (repeat unit), for which the glass transition temperature was 192.00 °C. Take `*Oc1ccc(S(=O)(=O)c2ccc(*)cc2)cc1` (repeat unit): the glass transition temperature worked out at 225.00 °C. `*Oc1ccc(S(=O)(=O)c2ccc(-c3ccc(-c4ccc(S(=O)(=O)c5ccc(*)cc5)cc4)cc3)cc2)cc1` (repeat unit) returned a glass transition temperature of 311.00 °C. The compound `*Oc1ccc(S(=O)(=O)c2ccc(Oc3ccc(/C=C4\CCC/C(=C\c5ccc(Oc6ccc(S(=O)(=O)c7ccc(Oc8ccc(C(C)(C)c9ccc(*)cc9)cc8)cc7)cc6)cc5)C4=O)cc3)cc2)cc1` (repeat unit) showed a glass transition temperature of 194.00 °C. In the case of `*Oc1ccc(S(=O)(=O)c2ccc(Oc3ccc(C(C)(C)c4ccc(*)c(N)c4)cc3N)cc2)c(N)c1` (repeat unit), the glass transition temperature is 237.10 °C. `*Oc1ccc(S(=O)(=O)c2ccc(Oc3ccc(C(C)(C)c4ccc(*)c(N)c4)cc3N)cc2)cc1` (repeat unit) displayed a glass transition temperature of 230.40 °C. Regarding `*Oc1ccc(S(=O)(=O)c2ccc(Oc3ccc(C(C)(CCC(=O)O)c4ccc(*)cc4)cc3)cc2)cc1` (repeat unit), the glass transition temperature is 163.00 °C.

`*Oc1ccc(S(=O)(=O)c2ccc(Oc3ccc(C(C)(c4ccccc4)c4ccc(*)cc4)cc3)cc2)cc1` (repeat unit) returned a glass transition temperature of 207.00 °C. `*Oc1ccc(S(=O)(=O)c2ccc(Oc3ccc(C(c4ccc(*)c([Si](C)(C)C)c4)(C(F)(F)F)C(F)(F)F)cc3[Si](C)(C)C)cc2)cc1` (repeat unit) registered a glass transition temperature of 168.60 °C.

Turning to `*Oc1ccc(S(=O)(=O)c2ccc(Oc3ccc(Sc4ccc(*)cc4)cc3)cc2)cc1` (repeat unit), the glass transition temperature worked out at 175.00 °C.

With `*c1ccc(-c2nc3ccc(Oc4ccc(Oc5ccc(P(=O)(c6ccccc6)c6ccc(Oc7ccc(Oc8ccc9nc(*)c(-c%10ccccc%10)nc9c8)cc7)cc6)cc5)cc4)cc3nc2-c2ccccc2)cc1` (repeat unit), the glass transition temperature worked out at 248.00 °C. In the case of `*c1ccc(C(=O)c2ccc(-n3nc(-c4ccccc4)c4cc(Oc5ccc(C(C)(C)c6ccc(Oc7ccc8c(-c9ccccc9)nn(*)c(=O)c8c7)cc6)cc5)ccc4c3=O)cc2)cc1` (repeat unit), the glass transition temperature was 195.00 °C.

As for `*c1ccc(N2C(=O)c3ccc(Oc4ccc(C(C)(C)c5cccc(Oc6ccc7c(c6)C(=O)N(*)C7=O)c5)cc4)cc3C2=O)cc1` (repeat unit), the glass transition temperature is 268.00 °C. `*c1ccc(Oc2ccc(C(=O)c3cccc(C(=O)c4ccc(Oc5ccc(-c6c7c(c(*)c8ccccc68)C(=O)N(c6ccc(F)cc6)C7=O)cc5)cc4)c3)cc2)cc1` (repeat unit) returned a glass transition temperature of 243.00 °C. As for `*c1ccc(Oc2ccc(C(=O)c3cccc(C(=O)c4ccc(Oc5ccc(-c6nc(-c7ccccc7)[nH]c6*)cc5)cc4)c3)cc2)cc1` (repeat unit), the glass transition temperature turned out to be 230.00 °C. The same measure for `*c1ccc(Oc2ccc(C(c3ccc(Oc4ccc(N5C(=O)c6ccc(Oc7ccc(C8(c9ccc(Oc%10ccc%11c(c%10)C(=O)N(*)C%11=O)cc9)CCC(C(C)(C)C)CC8)cc7)cc6C5=O)cc4)cc3)(C(F)(F)F)C(F)(F)F)cc2)cc1` (repeat unit): 227.00 °C; for `*c1ccc(Oc2ccc(C3(c4ccc(Oc5ccc(N6C(=O)c7ccc(Oc8ccc(C9(c%10ccc(Oc%11ccc%12c(c%11)C(=O)N(*)C%12=O)cc%10)CCC(C(C)(C)C)CC9)cc8)cc7C6=O)cc5)cc4)C4CC5CC(C4)CC3C5)cc2)cc1` (repeat unit): 266.00 °C; for `*c1ccc(Oc2ccc(Oc3ccc(-n4c(=O)c5cc6c(=O)n(*)c(=O)c6cc5c4=O)cc3)cc2)c(C(F)(F)F)c1` (repeat unit): 272.20 °C. The same measure for `*c1ccc(Oc2ccc(Oc3ccc(-n4c(=O)c5cc6c(=O)n(*)c(=O)c6cc5c4=O)cc3)cc2-c2ccccc2)cc1` (repeat unit): 271.00 °C; for `*c1ccc(Oc2ccc(S(=O)(=O)c3ccc(Oc4ccc(C5(*)OC(=O)c6ccccc65)cc4C)cc3)cc2)c(C)c1` (repeat unit): 245.00 °C. `*c1ccc(Oc2ccc(Sc3ccc(Oc4ccc(-c5nc(*)nc(-c6ccccc6)n5)cc4)cc3)cc2)cc1` (repeat unit) registered a glass transition temperature of 211.00 °C. On to `*c1ccc(Oc2cccc(Oc3ccc(N4C(=O)c5ccc(Oc6ccc(C(C)(C)c7ccc(Oc8ccc9c(c8)C(=O)N(*)C9=O)cc7)cc6)cc5C4=O)cc3)c2C#N)cc1` (repeat unit), for which the glass transition temperature turned out to be 213.00 °C. The same measure for `*c1ccc(S(=O)(=O)c2ccc(N3C(=O)c4ccc(Oc5ccc(C(C)(C)c6ccc(Oc7ccc8c(c7)C(=O)N(*)C8=O)cc6)cc5)cc4C3=O)cc2)cc1` (repeat unit): 267.00 °C; for `*c1cccc(C(=O)Nc2ccc(Oc3ccc(C(C)(C)c4ccc(Oc5ccc(NC(=O)c6cccc(N7C(=O)c8ccc(-c9cccc%10c9C(=O)N(*)C%10=O)cc8C7=O)c6)cc5)cc4)cc3)cc2)c1` (repeat unit): 261.00 °C. Turning to `*c1cccc(N2C(=O)c3ccc(Oc4ccc(C(C)(C)c5ccc(Oc6ccc7c(c6)C(=O)N(*)C7=O)cc5)cc4)cc3C2=O)c1` (repeat unit), the glass transition temperature was found to be 217.50 °C.

`*c1cccc(P(=O)(c2ccccc2)c2cccc(N3C(=O)c4ccc(Oc5ccc(C(C)(C)c6ccc(Oc7ccc8c(c7)C(=O)N(*)C8=O)cc6)cc5)cc4C3=O)c2)c1` (repeat unit) registered a glass transition temperature of 213.00 °C.
